Laboratory results as given in PMC7038240 (Antimicrobial Agents and Chemotherapy, 2020).
Where two headings read alike, the source gives them in different places.

Columns and labels:
Experiment in all cases: microbe, parasite or virus in culture
Format in all cases: cell-based
[1] = tested on: K. aerogenes; details: Klebsiella aerogenes
[2] = tested on: S. typhi; details: Salmonella enterica, strain 26A, AmpC/TEM-1
[3] = tested on: S. paratyphi; details: Salmonella enterica, strain 527, AmpC/TEM-1
[4] = tested on: P. aeruginosa; details: Pseudomonas aeruginosa
[5] = tested on: K. pneumoniae; details: Klebsiella pneumoniae, read-out: MIC

CO/N=C(\C(=O)N[C@@H]1C(=O)N2C(C(=O)[O-])=C(C[N+]3(C)CCCC3)CS[C@H]12)c1csc(N)n1 [FEP]
MIC ([1]; strain 73546, AmpC): 0.5 µg/mL
MIC ([1]; strain 110099, AmpC/SHV-12): 4 µg/mL
MIC ([1]; strain 111707, AmpC/TEM-1): 4 µg/mL
MIC [2]: 4 µg/mL
MIC [3]: 64 µg/mL
MIC [4]: 16 µg/mL
MIC ([4]; ATCC27853, P. aeruginosa ATCC 27853, PDC-5, read-out: MIC): 1 µg/mL
MIC ([4]; ATCC27853, strain ATCC 27853, W.T., read-out: MIC): 1 µg/mL
MIC ([4]; P. aeruginosa CDC-0457, VIM, read-out: MIC): 16 µg/mL
MIC ([4]; P. aeruginosa PS-12 (ST-235, VIM-2), BLI fixed at 4 μg/ml, read-out: MIC): 32 µg/mL
MIC ([4]; strain 10.257, PDC-50, read-out: MIC): 32 µg/mL
MIC ([4]; strain 11.516, PDC-79, read-out: MIC): 16 µg/mL
MIC ([4]; strain 11.698, PDC-87, read-out: MIC): 128 µg/mL
MIC ([4]; strain 11.813, PDC-91, read-out: MIC): ≥ 256 µg/mL
MIC ([4]; strain 13.1716, PDC-74, read-out: MIC): 128 µg/mL
MIC ([4]; strain 13.1717, PDC-74, read-out: MIC): 64 µg/mL
MIC ([4]; strain 13.1737, PDC-80, read-out: MIC): 16 µg/mL
MIC ([4]; strain 13.1755, PDC-86, read-out: MIC): 16 µg/mL
MIC ([4]; strain 13.1760, PDC-77, read-out: MIC): 16 µg/mL
MIC ([4]; strain 13.1775, PDC-87, read-out: MIC): 64 µg/mL
MIC ([4]; strain 247.3D, VIM-2, read-out: MIC): 32 µg/mL
MIC ([4]; strain 1129, PDC, read-out: MIC): 4 µg/mL
MIC ([4]; strain 3615, PDC/TEM-1, read-out: MIC): 16 µg/mL
MIC ([4]; strain 5671, VIM-1, read-out: MIC): 16 µg/mL
MIC ([4]; strain 8273, PDC/TEM-1, read-out: MIC): 8 µg/mL
MIC ([4]; strain 164951, W.T., read-out: MIC): 1 µg/mL
MIC ([4]; strain 377860, W.T., read-out: MIC): 4 µg/mL
MIC ([4]; strain 384743, PDC/TEM-1, read-out: MIC): 4 µg/mL
MIC ([4]; strain 1013996, KPC-2, read-out: MIC): ≥ 256 µg/mL
MIC ([4]; strain 1071703, GES-6, read-out: MIC): 16 µg/mL
MIC ([4]; strain 1113755, GES-5, read-out: MIC): 32 µg/mL
MIC ([4]; strain 1138223, GES-19, read-out: MIC): ≥ 256 µg/mL
MIC ([4]; strain 1138337, GES-19, read-out: MIC): ≥ 256 µg/mL
MIC ([4]; strain 1258509, GES-6, read-out: MIC): 32 µg/mL
MIC ([4]; strain 1275655, GES-20, read-out: MIC): ≥ 256 µg/mL
MIC ([4]; strain 1300089, GES-19, read-out: MIC): ≥ 256 µg/mL
MIC ([4]; strain 1313666, KPC-2, read-out: MIC): ≥ 256 µg/mL
MIC ([4]; strain CDC-0090, KPC, read-out: MIC): 128 µg/mL
MIC ([4]; strain PA2, W.T., read-out: MIC): 8 µg/mL
MIC ([4]; strain PAA1-9G1, GES-5, read-out: MIC): ≥ 256 µg/mL
MIC ([4]; strain PAA1-9G2, GES-5, read-out: MIC): ≥ 256 µg/mL
MIC ([4]; strain PS-12, VIM-2, read-out: MIC): 32 µg/mL
MIC ([4]; strain PS-32, VIM-2, read-out: MIC): 8 µg/mL
MIC ([4]; strain Paeβ-04, 100-fold ↑ PDC-2/30% OprD/5.6x ↑ABM, read-out: MIC): 16 µg/mL
MIC ([4]; strain Paeβ-10, 67-fold ↑ PDC-2/0.1% OprD/5.7x↑ABM, read-out: MIC): 16 µg/mL
MIC ([4]; strain Paeβ-15, 310-fold ↑ PDC-2/10% OprD/4.4x↑XYM, read-out: MIC): 128 µg/mL
MIC ([4]; strain Paeβ-18, 600-fold ↑ PDC-3/<0.01% OprD/3.9x and 5.6x ↑ABM and XYM, read-out: MIC): 64 µg/mL
MIC ([4]; strain Paeβ-21, 200-fold ↑ PDC-4/10% OprD/13.5x ↑XYM, read-out: MIC): 16 µg/mL
MIC ([4]; strain Ps296, VIM-2, read-out: MIC): 4 µg/mL
MIC ([5]; ATCC13883, K. pneumoniae ATCC 13883, enzyme content None): 0.06 µg/mL
MIC ([5]; BAA1705, K. pneumoniae BAA 1705, KPC-2): 16 µg/mL
MIC ([5]; K. pneumoniae CDC-0049 (NDM), BLI fixed at 4 μg/ml): 256 µg/mL
MIC ([5]; strain 6299, OXA-163): 64 µg/mL
MIC ([5]; strain 137052, SHV-11/KPC-3/TEM-1): 16 µg/mL
MIC ([5]; strain 178279, SHV-12/TEM-1/AmpC): 8 µg/mL
MIC ([5]; strain 196477, AmpC): 16 µg/mL
MIC ([5]; strain 212027, AmpC/FOX-5/TEM-1): 2 µg/mL
MIC ([5]; strain 515746, OXA-48): 32 µg/mL
MIC ([5]; strain 664438, OXA-48): 32 µg/mL
MIC ([5]; strain 664439, OXA-48): 32 µg/mL
MIC ([5]; strain 722870, OXA-48): 8 µg/mL
MIC ([5]; strain 752334, OXA-48): 128 µg/mL
MIC ([5]; strain 769972, OXA-48): 16 µg/mL
MIC ([5]; strain 787422, OXA-48): 64 µg/mL
MIC ([5]; strain 845661, KPC): ≥ 256 µg/mL
MIC ([5]; strain 847204, KPC): 32 µg/mL
MIC ([5]; strain 848562, KPC): ≥ 256 µg/mL
MIC ([5]; strain 848600, KPC): ≥ 256 µg/mL
